The target of test [1] is T1, Human PI3Kα (Homo sapiens, UniProt P42336).
T1 construct: purchased Millipore Corporation 14-602
As to the kind of experiment: PI3Kα enzyme inhibitory activity (Kinase-Glo Plus luminescence). The test is classed as biochemical. Conditions: human PI3Kα 12 ng/well, phosphatidylinositol 0.2 μg/well, 37° C. 3 hours. As for the experimental part: 2. PI3Kα Enzyme Inhibitory Activity
Human PI3Kα (12 ng/well, Millipore Corporation, Catalogue No. 14-602), phosphatidylinositol (0.2 μg/well), and the test compound were mixed in a 384-well plate in a reaction buffer (50 mM Hepes, 10 mM NaCl, 10 mM MgCl2, 2 mM EGTA, 2 mM DTT, pH 7.3) (total 10 μl), and incubated at 37° C. for 3 hours. After the reaction, 10 μL of a Kinase-Glo Plus reagent (Promega, Catalogue No. V3772) was added thereto, and a luminescence was measured with a luminometer.
In general terms: Kinase-Glo measures the ATP left after a reaction by luminescence.

Test [2] addresses T2, human PI3Kδ enzyme (Homo sapiens, UniProt O00329).
T2 construct: purchased Millipore Corporation 14-604
Description: PI3Kδ enzyme inhibitory activity (PI3-Kinase HTRF Assay kit). The test is classed as biochemical. Conditions: human PI3Kδ 10 ng/well, ATP 30 μM, PIP2 10 μM, room temperature 30 minutes. The procedure:
1. PI3Kδ Enzyme Inhibitory Activity
For the experiment, a PI3-Kinase HTRF Assay kit (Millipore Corporation, Catalogue No. 33-016) and a human PI3Kδ enzyme (Millipore Corporation, Catalogue No. 14-604) were used. The measurement method was in accordance with the appended instructions. The overview thereof is as follows.
PI3Kδ (10 ng/well), phosphatidylinositol-4,5-bisphosphate (10 μM), ATP (30 μM), and the test compound were mixed in a 384-well plate (total 20 μL), and incubated at room temperature for 30 minutes. EDTA and biotinylated phosphatidylinositol-3,4,5-triphosphate were added thereto to stop the reaction. Thereafter, a Europium labeled anti-GST antibody, a GST bond GRP1 PH domain, and streptavidin-APC were added thereto, followed by incubation overnight. An HTRF ratio was measured using an HTRF plate reader.
(In general: Time-resolved FRET reads energy transfer from a long-lived donor to a nearby acceptor.)

Test [3] deals with Spleen cells prepared from male LEW/CrlCrlj rats (B cell proliferation). Description: Rat B cell proliferation inhibition test (anti-rat IgM, [3H]thymidine). Conditions: anti-rat IgM 3 μg/well, 48 hours culture. The test is classed as cell-based. The procedure: 4. Rat B Cell Proliferation Inhibition Test
Spleen cells (1.0×10^5 cells/well) prepared from male LEW/CrlCrlj rats (Charles River Laboratories, Japan, Inc.), mouse F(ab′)2 fragment anti-rat IgM (3 μg/well, SouthernBiotech Associates, Inc., Catalogue No. 3082-14) and the test compound dissolved in DMSO (final DMSO concentration 0.1%) were mixed in a 96-well plate using a 10% FCS-containing RPMI-1640 culture medium (total 200 μL). They were cultured in a CO2 incubator for 48 hours and [^3H]thymidine (925 GBq/mmol, Moravek Biochemicals, Inc., Catalogue No. MT6038) was added thereto at 0.037 MBq/well at 4 hours before completion of culture. Cells were harvested in a GF/C glass filter using a cell harvester, and a radioactivity on the filter was measured using a liquid scintillation counter.

Where a name gives a salt, the structure may show the parent alone.

T1 sequence (P42336 whole entry): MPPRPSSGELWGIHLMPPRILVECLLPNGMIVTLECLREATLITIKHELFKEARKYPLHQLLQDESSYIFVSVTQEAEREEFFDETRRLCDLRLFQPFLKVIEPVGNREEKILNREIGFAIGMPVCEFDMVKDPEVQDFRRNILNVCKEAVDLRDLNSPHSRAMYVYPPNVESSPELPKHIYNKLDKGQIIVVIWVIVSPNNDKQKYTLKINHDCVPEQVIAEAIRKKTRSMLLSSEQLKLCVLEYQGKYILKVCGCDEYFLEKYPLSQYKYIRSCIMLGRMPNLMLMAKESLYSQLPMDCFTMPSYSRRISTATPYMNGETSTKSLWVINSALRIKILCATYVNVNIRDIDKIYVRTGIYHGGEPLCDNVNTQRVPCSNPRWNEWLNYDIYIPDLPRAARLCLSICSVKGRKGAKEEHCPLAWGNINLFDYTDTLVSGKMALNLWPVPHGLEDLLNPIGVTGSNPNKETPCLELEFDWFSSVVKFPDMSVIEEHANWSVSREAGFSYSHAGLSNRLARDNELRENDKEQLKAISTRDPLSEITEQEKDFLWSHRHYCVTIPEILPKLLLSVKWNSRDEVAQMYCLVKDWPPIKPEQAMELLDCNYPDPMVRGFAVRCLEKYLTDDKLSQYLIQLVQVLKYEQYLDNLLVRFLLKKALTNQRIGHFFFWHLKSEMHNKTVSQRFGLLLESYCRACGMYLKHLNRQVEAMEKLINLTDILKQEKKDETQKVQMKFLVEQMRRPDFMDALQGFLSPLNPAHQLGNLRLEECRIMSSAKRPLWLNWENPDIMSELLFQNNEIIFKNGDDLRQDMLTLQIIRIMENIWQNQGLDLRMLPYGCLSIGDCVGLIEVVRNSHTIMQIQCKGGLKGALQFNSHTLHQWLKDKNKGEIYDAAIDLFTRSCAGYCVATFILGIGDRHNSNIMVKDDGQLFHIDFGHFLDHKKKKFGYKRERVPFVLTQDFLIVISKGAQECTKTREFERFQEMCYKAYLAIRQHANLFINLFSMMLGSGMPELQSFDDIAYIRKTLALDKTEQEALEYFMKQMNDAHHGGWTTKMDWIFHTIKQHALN
T1 sequence (P27986 whole entry partner): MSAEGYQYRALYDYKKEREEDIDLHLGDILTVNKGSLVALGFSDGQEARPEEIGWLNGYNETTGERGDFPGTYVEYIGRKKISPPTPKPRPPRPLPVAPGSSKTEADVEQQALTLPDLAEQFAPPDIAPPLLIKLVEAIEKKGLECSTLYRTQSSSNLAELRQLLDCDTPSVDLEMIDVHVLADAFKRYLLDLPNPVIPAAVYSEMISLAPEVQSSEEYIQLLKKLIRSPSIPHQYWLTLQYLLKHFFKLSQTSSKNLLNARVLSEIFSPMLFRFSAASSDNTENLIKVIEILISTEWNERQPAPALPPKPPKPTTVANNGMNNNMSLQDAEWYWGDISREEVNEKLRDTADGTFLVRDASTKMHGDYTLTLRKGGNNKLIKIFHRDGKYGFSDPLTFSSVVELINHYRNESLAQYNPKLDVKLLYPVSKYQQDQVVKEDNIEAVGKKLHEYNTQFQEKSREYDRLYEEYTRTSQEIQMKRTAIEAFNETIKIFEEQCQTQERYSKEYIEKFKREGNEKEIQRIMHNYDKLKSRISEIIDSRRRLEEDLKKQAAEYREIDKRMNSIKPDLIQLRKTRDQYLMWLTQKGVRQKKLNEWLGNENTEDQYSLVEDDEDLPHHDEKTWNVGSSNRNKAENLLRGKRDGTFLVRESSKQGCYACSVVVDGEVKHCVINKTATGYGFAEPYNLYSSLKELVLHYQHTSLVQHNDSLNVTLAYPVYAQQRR
T2 sequence (O00329 whole entry): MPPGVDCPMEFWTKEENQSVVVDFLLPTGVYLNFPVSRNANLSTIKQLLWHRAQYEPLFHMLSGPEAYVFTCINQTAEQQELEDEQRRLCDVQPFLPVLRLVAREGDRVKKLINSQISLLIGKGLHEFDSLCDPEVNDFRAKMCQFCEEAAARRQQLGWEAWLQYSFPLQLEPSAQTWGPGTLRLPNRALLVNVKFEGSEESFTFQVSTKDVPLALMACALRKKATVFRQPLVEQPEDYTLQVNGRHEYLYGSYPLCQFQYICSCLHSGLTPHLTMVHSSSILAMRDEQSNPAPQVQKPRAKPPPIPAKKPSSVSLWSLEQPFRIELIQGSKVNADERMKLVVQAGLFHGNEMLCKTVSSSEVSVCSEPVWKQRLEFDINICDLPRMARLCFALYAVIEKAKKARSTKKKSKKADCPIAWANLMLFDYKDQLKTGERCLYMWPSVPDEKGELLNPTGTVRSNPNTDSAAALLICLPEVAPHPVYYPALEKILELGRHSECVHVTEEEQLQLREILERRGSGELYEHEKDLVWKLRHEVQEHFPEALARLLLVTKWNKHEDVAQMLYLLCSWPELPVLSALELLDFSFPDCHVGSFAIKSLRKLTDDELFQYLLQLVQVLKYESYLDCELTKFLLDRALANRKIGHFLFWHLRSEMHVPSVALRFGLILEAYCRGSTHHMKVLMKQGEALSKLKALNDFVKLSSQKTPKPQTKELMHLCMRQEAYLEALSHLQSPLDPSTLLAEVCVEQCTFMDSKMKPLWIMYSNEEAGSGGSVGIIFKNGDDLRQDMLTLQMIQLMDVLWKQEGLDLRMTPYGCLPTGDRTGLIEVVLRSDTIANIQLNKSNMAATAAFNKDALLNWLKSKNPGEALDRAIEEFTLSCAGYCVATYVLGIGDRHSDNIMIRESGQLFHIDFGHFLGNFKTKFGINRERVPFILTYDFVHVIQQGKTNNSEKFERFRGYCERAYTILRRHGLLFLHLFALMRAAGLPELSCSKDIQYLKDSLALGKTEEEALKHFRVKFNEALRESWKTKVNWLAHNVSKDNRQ
T2 sequence (P27986 whole entry partner): as the sequence (P27986 whole entry partner) above

Turning to `CN1CCC(CNc2cc(-n3c(C(F)F)nc4ccccc43)nc(N3CCOCC3)n2)CC1` [Example 4], the IC50 in test [1] was > 3000 nM; in test [2] it was 60 nM.
The like results for `O=C(CNCC1CC1)N[C@H]1CC[C@H](Oc2cc(-n3c(C(F)F)nc4ccccc43)nc(N3CCOCC3)n2)CC1` [Example 133] were, in that order, 5900 nM and 5.2 nM.
In the case of `C[C@@H]1C[C@@H](N2CCC(CNc3nc(N4CCOCC4)cc(-n4c(C(F)F)nc5ccccc54)n3)CC2)C[C@H](C)O1` [Example 224], the IC50 in test [3] came to 1.5 nM; in test [1], 7300 nM; in test [2], 3.3 nM.
Take `CC(=O)N[C@H]1CCN([C@H]2CC[C@H](Oc3cc(-n4c(C(F)F)nc5ccccc54)nc(N4CCOCC4)n3)CC2)C1=O` [Example 99]: the IC50 in test [3] was 2.5 nM; in test [1], > 10000 nM; in test [2] it was 16 nM.
Consider `C[C@H]1COCCN1c1cc(-n2c(C(F)F)nc3ccccc32)nc(NC[C@H]2CCCN(C(=O)OC(C)(C)C)C2)n1` [Example 20], for which the IC50 was found to be 1800 nM in test [1] and 19 nM in test [2].
On the same counts, the results for `CC(C)(C)OC(=O)N1CCC(CNc2nc(N3CCOC[C@@H]3CF)cc(-n3c(C(F)F)nc4ccccc43)n2)CC1` [Example 16] are > 10000 nM and 69 nM.
Turning to `O=C(CNC1CCOCC1)N[C@H]1CC[C@H](Oc2cc(-n3c(C(F)F)nc4ccccc43)nc(N3CCOCC3)n2)CC1` [Example 136], the IC50 in test [3] was 1.7 nM; in test [1], > 10000 nM; in test [2], 4 nM.
With `CN(C)CCN1CC[C@H](Nc2nc(N3CCOCC3)cc(-n3c(C(F)F)nc4ccccc43)n2)C1` [Example 45, 4-[2-(difluoromethyl)-1H-benzimidazol-1-yl]-N-{(3S)-1-[2-(dimethylamino)ethyl]pyrrolidin-3-yl}-6-morpholin-4-ylpyrimidin-2-amine dihydrochloride], the IC50 in test [1] amounted to 6800 nM; in test [2] it was 56 nM.
Take `CN1CC(C(=O)N2CC[C@H](Oc3cc(-n4c(C(F)F)nc5ccccc54)nc(N4CCOCC4)n3)C2)CC1=O` (stereo partly drawn) [A451]: the IC50 amounted to 1.2 nM in test [3], 2200 nM in test [1] and 35 nM in test [2].
The like results for `O=C(CNC1CCCC1)N[C@H]1CC[C@H](Oc2cc(-n3c(C(F)F)nc4ccccc43)nc(N3CCOCC3)n2)CC1` [Example 134] were, in that order, 3.4 nM, 6600 nM and 4.7 nM.
On the same counts, the results for `CN(CC(C)(C)O)C12CCC(CNc3nc(N4CCOCC4)cc(-n4c(C(F)F)nc5ccccc54)n3)(CC1)CC2` [Example 121] are 2 nM, 4900 nM and 13 nM.
For the molecule `FC(F)c1nc2ccccc2n1-c1cc(N[C@H]2CCC[C@@H](N3CCOCC3)C2)nc(N2CCOCC2)n1` [Example 123], the IC50 is > 3000 nM in test [1] and 4.5 nM in test [2].
For the molecule `CN(CC(=O)NC1CCC(Oc2cc(-n3c(C(F)F)nc4ccccc43)nc(N3CCOCC3)n2)CC1)C1CCC1` (stereo not drawn) [Example 196], the IC50 is 3.6 nM in test [3], > 10000 nM in test [1] and 4.8 nM in test [2].
The like results for `FC(F)c1nc2ccccc2n1-c1cc(N2CCOCC2)nc(NCC2CCN(C3CCC(F)(F)CC3)CC2)n1` [Example 36] were, in that order, 6.8 nM, 6700 nM and 17 nM.
Consider `FC(F)c1nc2ccccc2n1-c1cc(N2CCOCC2)nc(NCC2CCN(CC3CCOCC3)CC2)n1` [Example 39], for which the results for the IC50 in test [1] and in test [2] were 3900 nM and 27 nM, respectively.
For the molecule `COC(=O)N[C@@H]1CCN([C@H]2CC[C@H](Nc3nc(N4CCOCC4)cc(-n4c(C(F)F)nc5ccccc54)n3)CC2)C1=O` [Example 441], the IC50 in test [3] came to 1.8 nM; in test [1], 1400 nM; in test [2], 48 nM.
The like results for `FC(F)c1nc2ccccc2n1-c1cc(N2CCOCC2)nc(NCC2CCN([C@H]3CC[C@@H](F)CC3)CC2)n1` [Example 43-2, 4-[2-(difluoromethyl)-1H-benzimidazol-1-yl]-N-{[1-(cis-4-fluorocyclohexyl)piperidin-4-yl]methyl}-6-(morpholin-4-yl)pyrimidin-2-amine dihydrochloride] were, in that order, 3.1 nM, 8000 nM and 8.6 nM.
Turning to `FCC(CF)N1CCC(CNc2nc(N3CCOCC3)cc(-n3c(C(F)F)nc4ccccc43)n2)CC1` [Example 35], the values for the half-maximal inhibitory concentration (IC50) in test [1] and in test [2] were 4200 nM and 18 nM, respectively.
Take `CN(C)CC(=O)N1CCC(CNc2nc(N3CCOCC3)nc(-n3c(C(F)F)nc4ccccc43)n2)CC1` [Example 67]: the results for the IC50 in test [1] and in test [2] were 990 nM and 47 nM, respectively.
On the same counts, the results for `C[C@@H]1C[C@H](N2CCC(CNc3nc(N4CCOCC4)cc(-n4c(C(F)F)nc5ccccc54)n3)CC2)C[C@H](C)O1` [Example 194] are 3300 nM and 5.8 nM.
On the same counts, the results for `COc1ccc(N2CCC(CNc3nc(N4CCOCC4)cc(-n4c(C(F)F)nc5ccccc54)n3)CC2)cc1` [Example 78] are 2900 nM and 8.5 nM.
For `CC(C)(C)OC(=O)N1CCC[C@H](CNc2nc(N3CCOCC3)cc(-n3c(C(F)F)nc4ccccc43)n2)C1` [Example 18], the values for the IC50 in test [1] and in test [2] were 7700 nM and 50 nM, respectively.
The like results for `FC(F)c1nc2ccccc2n1-c1cc(N2CCOCC2)nc(NCC2CCN(c3ccccc3)CC2)n1` [Example 44, 4-[2-(difluoromethyl)-1H-benzimidazol-1-yl]-6-(morpholin-4-yl)-N-[(1-phenylpiperidin-4-yl)methyl]pyrimidin-2-amine dihydrochloride] were, in that order, 5000 nM and 14 nM.
Consider `FC(F)c1nc2ccccc2n1-c1cc(N2CCOCC2)nc(NCCC2CCN(Cc3ccccc3)CC2)n1` [Example 25], for which the IC50 in test [1] stood at 6200 nM; in test [2] it was 69 nM.
On the same counts, the results for `O=C(C1CCOC1)N1CC[C@H](Nc2cc(-n3c(C(F)F)nc4ccccc43)nc(N3CCOCC3)n2)C1` (stereo partly drawn) [A464] are 2200 nM and 10 nM.
On the same counts, the results for `CC(C)(C)OC(=O)N1CC[C@H](Nc2nc(N3CCOCC3)cc(-n3c(C(F)F)nc4ccccc43)n2)C1` [Example 1, tert-butyl (3S)-3-({4-[2-(difluoromethyl)-1H-benzimidazol-1-yl]-6-morpholin-4-ylpyrimidin-2-yl}amino)pyrrolidine-1-carboxylate] are 2800 nM and 29 nM.
As for `CC(=O)N1CCC(CC(=O)N2CC(Nc3cc(-n4c(C(F)F)nc5ccccc54)nc(N4CCOCC4)n3)C2)CC1` [A564], the IC50 is 2.2 nM in test [3] and 19 nM in test [2].
For `OC1CCC(N2CCC(CNc3nc(N4CCOCC4)cc(-n4c(C(F)F)nc5ccccc54)n3)CC2)CC1` (stereo not drawn) [Example 28], the values for the half-maximal inhibitory concentration (IC50) in test [1] and in test [2] were > 3000 nM and 35 nM, respectively.
On the same counts, the results for `CN(C)CC(=O)N[C@H]1CCC[C@H](Nc2cc(-n3c(C(F)F)nc4ccccc43)nc(N3CCOCC3)n2)C1` [Example 100] are > 3000 nM and 5.7 nM.
In the case of `Fc1ccccc1N1CCC(CNc2nc(N3CCOCC3)cc(-n3c(C(F)F)nc4ccccc43)n2)CC1` [Example 77], the figures for the IC50 in test [1] and in test [2] were 5400 nM and 18 nM, respectively.
On the same counts, the results for `Fc1ccc(N2CCC(CNc3nc(N4CCOCC4)cc(-n4c(C(F)F)nc5ccccc54)n3)CC2)cc1` [Example 75] are 5400 nM and 25 nM.
`C[C@H]1COCCN1c1cc(-n2c(C(F)F)nc3ccccc32)nc(NCC2CCN(C(=O)OC(C)(C)C)CC2)n1` [Example 13]: the figures for the IC50 in test [1] and in test [2] were 980 nM and 36 nM, respectively.
As for `CN(C)CC(=O)N1CC(Nc2nc(N3CCOCC3)cc(-n3c(C(F)F)nc4ccccc43)n2)C1` [Example 69], the IC50 in test [2] was determined as 22 nM.
For the molecule `COC(=O)N[C@@H]1CCN([C@H]2CC[C@H](Nc3cc(-n4c(C(F)F)nc5ccccc54)nc(N4CCOCC4)n3)CC2)C1=O` [Example 371], the IC50 in test [1] came to 5000 nM; in test [2], 35 nM.
Regarding `FC(F)c1nc2ccccc2n1-c1cc(N2CCOCC2)nc(NCC23CCC(N4CCOCC4)(CC2)CC3)n1` [Example 120], the IC50 in test [1] came out at 6400 nM; in test [2] it was 27 nM.
On the same counts, the results for `CC(C)(C)OC(=O)N1CCC(N2CCC(CNc3nc(N4CCOCC4)cc(-n4c(C(F)F)nc5ccccc54)n3)CC2)CC1` [Example 30] are > 3000 nM and 12 nM.

The term IC50 denotes the concentration needed to halve the response being measured.

These data come from patent publication US8912180B2, “Heterocyclic compound” (Astellas Pharma Inc., priority 2010, dated 2014).
